The values below come from PubChem BioAssay (NCI).

Structures are written as SMILES. Where “and” joins values, the source holds several entries; their conditions need not be identical. Equal entries are not always repeated.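 Method: 48-hour compound exposure of cells in 96-well plates, five concentrations, linear interpolation of endpoints. Here, GI50 denotes the concentration required for 50% inhibition of growth. TGI: total growth inhibition.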 Bounds are passed on as bounds.

Assay in all cases: NCI-60 cell line screen, 48 h
The test system of test [1] is MDA-MB-231 breast.
In test [2] the test system is SNB-75 CNS.
Test [3] has as its system LOX IMVI melanoma.
The subject of test [4] is 786-0 renal.
Test [5] relates to K-562 leukemia.
Test [6] deals with SNB-19 CNS.
The test system of test [7] is HOP-92 NSCLC.
Test [8] relates to COLO 205 colon.
The subject of test [9] is SW-620 colon.
Test [10] concerns A549 NSCLC.

Take `CC(C)C[S+]1C2=C([O-])CC(C)(C)CC2=Nc2ccccc21` (configuration not stated): the TGI in test [1], in [2], in test [3], in test [4], in [5] and in [6] was greater than 100 µM each time. Further, the TGI in [7], in test [8], in test [9] and in [10] was greater than 100 µM in each case.
Turning to `COc1ccccc1C1C2=C(COC2=O)Oc2cc3c(cc21)OCO3` (configuration not stated), the TGI is greater than 87.6 µM in [1]; 21.9 µM in test [2]; greater than 100 µM in test [3]; 28 µM in test [4]; greater than 100 µM in [5]; 72.3 µM in [6]. Besides, the TGI in test [7] was 97.7 µM; in test [8] it was 14.2 µM; in [9] it was greater than 100 µM; in [10], greater than 100 µM.
With `COc1ccc(/C=C2/N=C(N/N=C\C(O)C(O)C(O)CO)NC2=O)cc1` (configuration not stated), the TGI in [1], in [2], in [3], in [4], in test [5] and in test [6] was greater than 100 µM throughout. Further, the TGI in test [7], in test [8], in test [9] and in test [10] was greater than 100 µM throughout. Further, the GI50 in test [2] was > 100 µM and 41.4 µM; in [5], 33 µM; in [6] it was > 100 µM and 48.4 µM.
Consider `c1ccc(-c2csc3c2-n2cccc2C3N2CCCC2)cc1` (configuration not stated), for which the TGI in test [1], in test [2], in test [3], in test [4], in [5] and in test [6] was greater than 100 µM each time. For the same compound, the TGI in [7] is 81.9 µM; in [9], greater than 100 µM; in [10], greater than 100 µM.
Regarding `O=[N+]([O-])c1ccc(CSc2nn(Cc3ccc([N+](=O)[O-])cc3)cc3ncnc2-3)cc1`, the TGI is greater than 100 µM in test [1]; greater than 100 µM in test [2]; greater than 100 µM in test [3]; greater than 100 µM in [4]; greater than 100 µM in [5]; 30.4 µM in test [7]. The TGI in test [8], in test [9] and in [10] was greater than 100 µM in each case.
Regarding `CCO/C(O)=C(/C(=N)N1CCOCC1)C(=O)Nc1cccc(C(F)(F)F)c1`, the TGI in test [1], in test [2], in [3], in [4], in test [5] and in test [6] was greater than 100 µM in each case. Moreover, the TGI in test [7], in [8], in test [9] and in test [10] was greater than 100 µM each time.
`OC1(c2ccccc2)CC2CCC(C1)N2CCCC(O)(c1ccccc1)c1ccccc1` (configuration not stated): the TGI in [1] is 43.9 µM; in test [2] it was 23.8 µM; in [3], 22.4 µM; in test [4], 25.6 µM; in test [5], 37.8 µM; in test [6], 42.9 µM. Moreover, the TGI in test [7] was found to be 18.9 µM; in test [8] it was 30.8 µM; in [9], 22.4 µM; in test [10], 34.4 µM.
As to `O=C1CC(c2ccc(Cl)cc2)C2(C(=O)NC(=S)NC2=O)C(c2ccc(Cl)cc2)C1` (configuration not stated), the TGI was 46.8 µM in test [1]; 30.2 µM in test [2]; greater than 100 µM in test [3]; greater than 100 µM in [4]; 74.1 µM in test [5]; 36.6 µM in test [6]. The TGI was determined as 40.3 µM in [7], 30.6 µM in test [8], 44.7 µM in test [9] and 73 µM in test [10].
On to `CC(=O)O[C@@H]1[C@H](OC2CCCCC2(c2ccccc2)c2ccccc2)O[N+]([O-])=CC12CCCCC2` (some centres not stated), for which the TGI is 30 µM in [1]; 29.4 µM in test [2]; 46.2 µM in [3]; 26.2 µM in test [4]; greater than 100 µM in test [5]; 59.2 µM in test [7]. Besides, the TGI in test [8] worked out at 33.7 µM; in [9], 31.6 µM; in test [10], 31.6 µM.
Regarding `Clc1ccc(Nc2ncco2)cc1Cl`, the TGI in test [1], in [2], in test [3], in [4], in test [5] and in test [6] was greater than 10 µM in each case. For the same compound, the TGI in test [7], in test [8], in test [9] and in test [10] was greater than 10 µM throughout.
As to `CC(=O)N1C(C(=O)NN2CCOCC2)CSC1c1ccccc1` (configuration not stated), the TGI in [1], in test [2], in [3], in test [4], in test [5] and in [6] was greater than 100 µM in each case. Besides, the TGI in test [7], in test [8], in [9] and in [10] was greater than 100 µM each time.
Turning to `CN1C(=O)N(C)C2(CCN(CC(CC3OCCO3)c3ccc(F)cc3)CC2)C1=O` (configuration not stated), the TGI in test [1], in [2], in [3], in test [4], in test [5] and in test [6] was greater than 100 µM each time. Moreover, the TGI in test [7], in [8] and in [10] was greater than 100 µM in each case.
As for `CC1=C(C(=O)NNC(=O)Cc2ccccc2)CC(C(=O)NNC(=O)Cc2ccccc2)=C(C)N1`, the TGI in test [1], in test [2], in test [3], in test [4], in test [6] and in test [7] was greater than 100 µM in each case. In addition, the TGI in [8], in [9] and in [10] was greater than 100 µM throughout.
As to `COc1ccc2[nH]c3cc4c(=O)c5cc(OC)ccc5[nH]c4cc3c(=O)c2c1`, the TGI is greater than 100 µM in test [1]; 67.5 µM in [2]; greater than 100 µM in test [4]; greater than 100 µM in test [5]; greater than 100 µM in [6]; greater than 100 µM in test [7]. The TGI in test [8], in test [9] and in test [10] was greater than 100 µM each time.
For the compound `CCCNC1=C2C[C@@H](C)C[C@@H](OC)[C@@H](OC(=O)CCCN)[C@H](C)/C=C(\C)[C@@H](OC(N)=O)[C@H](OC)/C=C\C=C(/C)C(=O)NC(=CC1=O)C2=O`, the TGI was 36.7 µM in test [1]; greater than 48.3 µM in test [3]; 53.9 µM in test [4]; greater than 20.9 µM in [5]; 29.7 µM in test [6]; 25.8 µM in [7]. Moreover, the TGI in test [8] was 12.1 µM; in test [9] it was greater than 43.8 µM; in [10], 40.6 µM.
Take `CCOC(=O)Oc1cc2ccsc2c2c1c1ccccc1n2C(=O)OCC`: the TGI in test [1] was greater than 100 µM; in test [2] it was greater than 100 µM; in test [3], greater than 100 µM; in test [4] it was greater than 100 µM; in test [5], greater than 100 µM; in test [7] it was 44.7 µM. Further, the TGI in test [8], in test [9] and in test [10] was greater than 100 µM each time.
Take `Cc1nc2cn3c(c2c(=O)[nH]1)CCCCC3`: the TGI in test [1] is 69.7 µM; in test [2], greater than 100 µM; in [3] it was greater than 100 µM; in test [4], greater than 100 µM; in test [5], greater than 100 µM; in [6] it was greater than 100 µM. In addition, the TGI in test [7], in [8] and in test [9] was greater than 100 µM throughout.
For `N=c1c2sc3nc4ccccc4n3c2ncn1Cc1ccccc1`, the TGI in [1], in [2], in test [3], in [4], in test [6] and in test [7] was greater than 100 µM in each case. The TGI in [8], in [9] and in [10] was greater than 100 µM each time.
Consider `COC(CNC(=O)CNC(=O)c1ccc(C(F)(F)F)cc1)OC`, for which the TGI in [1], in test [2], in [4], in test [5], in [6] and in test [7] was greater than 100 µM each time. Moreover, the TGI in [8], in test [9] and in test [10] was greater than 100 µM in each case.
`CCOC(=O)NN(C(=O)OCC)c1ccc(N=Nc2ccc(OC)cc2)n1C`: the TGI in test [1] was 65.5 µM; in test [2] it was 46 µM; in test [3], 41.5 µM; in [4], 97.9 µM; in test [5], 71.4 µM; in test [7], 78.5 µM. Moreover, the TGI in test [8] came to 41.3 µM; in test [10], 63.5 µM.
`Cc1ccc(C2(O)c3ccccc3C(=O)N(C)C2(O)c2ccc(C)cc2)cc1` (configuration not stated): the TGI in test [1] is greater than 100 µM; in test [3] it was greater than 100 µM; in test [4], greater than 100 µM; in [5], greater than 100 µM; in [6] it was 64.1 µM; in [7], 91.1 µM. The TGI in [8], in test [9] and in [10] was greater than 100 µM each time.
Consider `C/C=C/CC(C(=O)OCC)(N(C)C(=O)OC(C)(C)C)S(=O)(=O)c1ccc(C)cc1` (configuration not stated), for which the TGI in test [1], in [3], in [4], in test [5], in test [6] and in test [7] was greater than 100 µM in each case. Moreover, the TGI in test [8], in test [9] and in [10] was greater than 100 µM throughout.
As to `O=C(Nc1ccccc1)c1cc2ccccc2c(N=Nc2cccc([N+](=O)[O-])c2)c1O`, the TGI was greater than 100 µM in test [1]; greater than 100 µM in test [2]; greater than 100 µM in [4]; greater than 100 µM in test [5]; 97.2 µM in test [6]; greater than 100 µM in [7]. The TGI in test [8], in test [9] and in test [10] was greater than 100 µM each time.
With `Cc1ccc(Nc2c3c(c(C#N)c4nc5ccccc5n24)CCCC3)cc1`, the TGI is 62.4 µM in test [1]; greater than 100 µM in [3]; greater than 100 µM in test [4]; greater than 100 µM in [5]; greater than 100 µM in [6]; 76.2 µM in test [7]. The values for the TGI in test [8], in test [9] and in test [10] were 50.6 µM, 61 µM and greater than 100 µM, respectively.
For `C=CCn1c(-c2cc(C(C)(C)C)c(O)c(C(C)(C)C)c2)cs/c1=N\C(P(=O)(O)O)P(=O)(O)O`, the TGI in test [1], in test [2], in test [4], in [5], in test [6] and in test [7] was greater than 100 µM throughout. Further, the TGI in test [8], in test [9] and in [10] was greater than 100 µM throughout.
Regarding `C1=N[C@]23C(=N[C@H](N=C2NCc2ccco2)[C@]24N=CNC2=N[C@H]3N=C4NCc2ccco2)N1`, the GI50 is greater than 100 µM in [1]; 67.1 µM in test [2]; greater than 100 µM in test [3]; greater than 100 µM in [5]; greater than 100 µM in test [6]; 5.34 µM in test [7]. Also, the GI50 in test [8], in [9] and in test [10] was greater than 100 µM each time. Also, the TGI in [1], in test [2], in [3], in [5], in test [6] and in test [7] was greater than 100 µM throughout. Also, the TGI in test [8], in test [9] and in test [10] was greater than 100 µM each time.
Turning to `CCOC(=O)COc1cc(-c2ccccc2F)nc2cc3c(cc12)OCO3`, the TGI in test [1] is greater than 100 µM; in [2] it was greater than 100 µM; in test [3] it was greater than 100 µM; in [4] it was greater than 100 µM; in test [5], greater than 100 µM; in test [7] it was 98.8 µM. The TGI in test [8], in test [9] and in test [10] was greater than 100 µM throughout.
